ChEMBL document CHEMBL5344402, “A multi-target directed ligands strategy for the treatment of Alzheimer's disease: Dimethyl fumarate plus Tranilast modified Dithiocarbate as AChE inhibitor and Nrf2 activator” (Eur J Med Chem, 2022)

Key:
[1] = target: Acetylcholinesterase (Electrophorus electricus, UniProt O42275); assay: Inhibition of electric eel AChE using acetylthiocholine iodide as substrate preincubated for 5 mins followed by substrate addition by DTNB reagent based Ellman's method
[2] = target: Cholinesterase (Equus caballus) (UniProt P81908); assay: Inhibition of equine serum BuChE using butyrylthiocholine iodide as substrate at 10 uM preincubated for 5 mins followed by substrate addition by DTNB reagent based Ellman's method relative to control; type: cell-free
[3] = in vitro; details: PAMPA
[4] = target: Cholinesterase (Homo sapiens) (UniProt P06276); assay: Inhibition of human BuChE using butyrylthiocholine iodide as substrate at 10 uM preincubated for 5 mins followed by substrate addition by DTNB reagent based Ellman's method relative to control
[5] = target: Acetylcholinesterase (Homo sapiens, UniProt P22303); assay: Inhibition of human AChE using acetylthiocholine iodide as substrate preincubated for 5 mins followed by substrate addition by DTNB reagent based Ellman's method
Sequence of Acetylcholinesterase (Homo sapiens, UniProt P22303) (P22303 whole entry): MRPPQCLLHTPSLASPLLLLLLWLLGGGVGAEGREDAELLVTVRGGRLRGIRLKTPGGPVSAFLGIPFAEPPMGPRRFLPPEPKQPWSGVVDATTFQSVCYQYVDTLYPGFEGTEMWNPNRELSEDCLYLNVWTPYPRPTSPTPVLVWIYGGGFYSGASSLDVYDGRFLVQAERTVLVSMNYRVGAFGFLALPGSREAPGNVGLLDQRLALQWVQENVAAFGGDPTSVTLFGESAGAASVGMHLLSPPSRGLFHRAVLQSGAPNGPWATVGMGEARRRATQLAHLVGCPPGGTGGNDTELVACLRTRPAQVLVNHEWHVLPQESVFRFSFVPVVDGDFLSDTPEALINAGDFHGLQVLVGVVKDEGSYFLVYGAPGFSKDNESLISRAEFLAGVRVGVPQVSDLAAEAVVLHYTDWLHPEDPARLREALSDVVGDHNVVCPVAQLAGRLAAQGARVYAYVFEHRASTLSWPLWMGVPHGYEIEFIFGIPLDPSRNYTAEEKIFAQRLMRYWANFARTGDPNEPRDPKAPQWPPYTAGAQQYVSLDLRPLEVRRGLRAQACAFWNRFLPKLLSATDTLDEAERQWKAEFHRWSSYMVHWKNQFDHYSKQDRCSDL

Sequence of Cholinesterase (Equus caballus) (P81908 whole entry): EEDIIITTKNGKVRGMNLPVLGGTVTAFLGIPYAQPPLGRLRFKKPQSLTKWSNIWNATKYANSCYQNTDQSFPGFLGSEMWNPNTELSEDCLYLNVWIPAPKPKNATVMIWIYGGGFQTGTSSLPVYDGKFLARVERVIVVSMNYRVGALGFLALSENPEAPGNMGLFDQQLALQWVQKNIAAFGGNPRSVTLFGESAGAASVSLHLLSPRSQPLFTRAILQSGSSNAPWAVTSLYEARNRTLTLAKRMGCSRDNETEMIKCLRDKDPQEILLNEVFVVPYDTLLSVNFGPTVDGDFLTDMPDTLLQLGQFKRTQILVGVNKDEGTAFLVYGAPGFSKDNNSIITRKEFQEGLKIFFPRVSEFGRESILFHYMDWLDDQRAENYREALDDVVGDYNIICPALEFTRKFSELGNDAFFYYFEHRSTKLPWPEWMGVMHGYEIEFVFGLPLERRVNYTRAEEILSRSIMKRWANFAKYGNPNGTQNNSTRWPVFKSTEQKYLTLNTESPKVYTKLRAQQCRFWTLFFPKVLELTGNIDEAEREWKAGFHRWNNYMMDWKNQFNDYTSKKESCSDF
Sequence of Cholinesterase (Homo sapiens) (P06276 whole entry): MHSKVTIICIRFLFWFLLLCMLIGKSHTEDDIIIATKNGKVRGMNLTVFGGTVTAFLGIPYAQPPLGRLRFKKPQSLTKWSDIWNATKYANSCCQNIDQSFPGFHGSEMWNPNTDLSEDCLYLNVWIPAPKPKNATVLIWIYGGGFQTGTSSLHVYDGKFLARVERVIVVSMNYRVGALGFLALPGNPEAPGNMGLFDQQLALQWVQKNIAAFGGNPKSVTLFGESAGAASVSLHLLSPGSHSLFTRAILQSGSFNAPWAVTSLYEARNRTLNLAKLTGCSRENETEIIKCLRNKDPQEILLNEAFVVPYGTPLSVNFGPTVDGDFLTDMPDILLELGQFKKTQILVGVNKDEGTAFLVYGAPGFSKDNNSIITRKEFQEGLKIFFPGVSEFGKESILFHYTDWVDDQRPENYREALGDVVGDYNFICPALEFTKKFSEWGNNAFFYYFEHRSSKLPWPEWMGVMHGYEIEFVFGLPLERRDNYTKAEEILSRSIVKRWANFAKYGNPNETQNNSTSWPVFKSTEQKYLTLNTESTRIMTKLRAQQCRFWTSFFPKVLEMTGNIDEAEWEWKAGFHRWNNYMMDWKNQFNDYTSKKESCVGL
Sequence of Acetylcholinesterase (Electrophorus electricus, UniProt O42275) (O42275 whole entry): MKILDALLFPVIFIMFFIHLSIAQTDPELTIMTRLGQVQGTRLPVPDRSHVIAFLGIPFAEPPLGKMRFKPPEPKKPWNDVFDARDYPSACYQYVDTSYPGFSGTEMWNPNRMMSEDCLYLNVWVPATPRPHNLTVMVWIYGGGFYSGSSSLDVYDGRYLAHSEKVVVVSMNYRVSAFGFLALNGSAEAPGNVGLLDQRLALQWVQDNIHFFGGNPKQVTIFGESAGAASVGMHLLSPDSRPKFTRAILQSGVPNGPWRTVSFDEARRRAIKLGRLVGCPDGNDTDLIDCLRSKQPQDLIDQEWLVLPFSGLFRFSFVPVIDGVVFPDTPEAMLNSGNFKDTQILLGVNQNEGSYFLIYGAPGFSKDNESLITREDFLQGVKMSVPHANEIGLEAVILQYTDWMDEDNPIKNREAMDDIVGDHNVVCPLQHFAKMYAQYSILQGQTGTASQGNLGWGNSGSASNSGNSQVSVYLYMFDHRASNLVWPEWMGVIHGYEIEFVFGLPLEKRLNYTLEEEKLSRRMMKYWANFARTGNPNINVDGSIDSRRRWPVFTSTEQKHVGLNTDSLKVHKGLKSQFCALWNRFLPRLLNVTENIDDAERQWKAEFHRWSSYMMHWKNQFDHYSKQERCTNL

SMILES	IC50 [1] [nM]	inhibition [2] [%]	Papp at 18 h [3] [×10⁻⁶ cm/s]	inhibition [4] [%]	IC50 [5] [nM]
CCN(CC)C(=S)SCCCCOc1cccc(NC(=O)/C=C/C(=O)OC)c1	11300	> 5	–	–	–
COC(=O)/C=C/C(=O)Nc1cccc(OCCCCCSC(=S)N2CCCCC2)c1	26700	< 5	–	–	–
COC(=O)/C=C/C(=O)Nc1cccc(OCCCCSC(=S)N2CCC(C)CC2)c1	19700	8.48	–	–	–
COC(=O)/C=C/C(=O)Nc1cccc(OCCCCCCSC(=S)N2CCCCC2)c1	28700	< 5	–	–	–
CC(=O)[C@H]1CC[C@H]2[C@@H]3CCC4=CC(=O)CC[C@]4(C)[C@H]3CC[C@]12C [PROGESTERONE]	–	–	11.2	–	–
COC(=O)/C=C/C(=O)Nc1cccc(OCCSC(=S)N2CCCCC2)c1	2560	12.8	21.3	6.83	1390
COC(=O)/C=C/C(=O)Nc1cccc(OCCCSC(=S)N2CCCCC2)c1	2380	13.2	13	7.06	1980
COC(=O)/C=C/C(=O)Nc1ccc(OCCCCSC(=S)N2CCCCC2C)cc1 (centres undefined)	490	18	12.7	< 5	380
